Results: patent US7129213B2, “Tripeptides and tripeptide derivatives for the treatment of neurodegenerative diseases” (Neurotell AG, priority 2002, dated 2006)
Where two headings read alike, the source gives them in different places.

How the values were obtained:
[1] = literature values; cited from earlier work
[2] = Metabolic stability in rat hepatocytes; format: in vitro ADME; details: male, Wistar, freshly isolated rat hepatocytes in suspension, 10^6 cells/ml, analysed over 24 h, read-out: T½ (converted)
From the text: Hepatocytes from adult male Wistar rats (IFFA Credo, L'Arbresle, France) were isolated by an in situ liver perfusion using collagenase (purchased from Sigma (St. Louis, Mo., U.S.A), according to a procedure described by Seglen (Preparation of isolated rat liver cell, Methods Cell Biol. 13, 29–83, 1976) and modified by Williams et al. (Rat hepatocyte primary culture. III. Improved dissociation and attachment techniques and the enhancement of survival by culture medium, in vitro 13: 809–817, 1977). After estimation of cell viability by the peripheral refractoriness of intact cells in phase contrast microscopy and the trypan blue test, freshly isolated hepatocytes were washed in basal William's medium E (WME) supplemented with 10% (v/v) fetal calf serum, 70 μM cortisol, 2 mM L-glutamine, 10 mM HEPES buffer, and 4 mM NaOH. […]
Each substance of each concentration will be analysed 10 times during 24 h (1 h, 2 h, 4 h, 6 h, 8 h, 10 h, 12 h, 16 h, 20 h, 24 h).

CC[C@H](C)[C@H](NC(=O)[C@H]([C@@H](C)CC)N(CC)CC)C(=O)N1CCC[C@H]1C(N)=O [N,N-Diethyl-Ile-Ile-ProNH2, N,N-diethyl-isoleucyl-isoleucyl-prolineamide]
PAMPA classification, predicted absorption after peroral application (PAMPA): medium to highly absorbed

thyreoliberin [TRH, reference compound]
Pampa Flux (%) Mean ± SEM (500 μM in Tris-buffer pH 7,4, diffusion time 16 h): <10% | PAMPA classification, predicted absorption after peroral application (classification by flux rate): weakly absorbed

C[C@]12CCC(=O)C=C1CC[C@@H]1[C@@H]2[C@@H](O)C[C@@]2(C)[C@H]1CC[C@]2(O)C(=O)CO [Hydrocortisone]
flux rates published by Kansy et al. [1]: 52%

CC[N+](C)(C)Cc1ccccc1Br [Bretylium, reference compound]
Pampa Flux (%) Mean ± SEM (PAMPA, 16 h, 500 μM, pH 7): 0%

CC[C@H](C)[C@H](NC(C)C)C(=O)N[C@H](C(=O)N1CCC[C@H]1C(N)=O)[C@@H](C)CC [N-Isopropyl-Ile-Ile-ProNH2]
PAMPA classification, predicted absorption after peroral application (PAMPA): medium to highly absorbed | half-life [2]: 2.6 h

O=c1ccc2ccccc2o1 [Coumarin, reference compound]
Pampa Flux (%) Mean ± SEM (PAMPA, 16 h, 500 μM, pH 7): 72 ± 2% | flux rates published by Kansy et al. [1]: 66%

CC[C@H](C)[C@H](NC(=O)CN(CC)CC)C(=O)N1CCC[C@H]1C(N)=O [N,N-Diethyl-Gly-Ile-ProNH2]
PAMPA classification, predicted absorption after peroral application (PAMPA): medium to highly absorbed

CCNC(=O)[C@@H]1CCCN1C(=O)[C@H](Cc1ccccc1)NC(=O)[C@H]([C@@H](C)CC)N(CC)CC [N,N-Diethyl-Ile-Phe-ProNHEt, N,N-diethyl-isoleucyl-phenylalanyl-L-proline ethylamide]
PAMPA classification, predicted absorption after peroral application (PAMPA): medium to highly absorbed
